Measurements: US9636418B2 (priority 2013, dated 2017)
Where “and” joins values, the source holds several entries; their conditions need not be identical. Equal entries are not always repeated.

What was measured:
Assay in all cases: cell-based
hNav1.3 = hNav1.3 (Homo sapiens, UniProt Q9NY46); details: IonWorks Quattro; read-out: IC50 Nav1.3
hNav1.5 = hNav1.5 (Homo sapiens, UniProt Q14524); details: IonWorks Quattro; read-out: IC50 Nav1.5
hNav1.4 = hNav1.4 (Homo sapiens, UniProt P35499); details: for IC50: IonWorks Quattro, read-out: IC50 Nav1.4; for Nav1.4/Nav1.7: ratio of IonWorks Quattro IC50 values
hNav1.7 = hNav1.7 (Homo sapiens, UniProt Q15858); details: IonWorks Quattro; read-out: IC50 Nav1.7
hNav1.7, sequence (Q15858 whole entry): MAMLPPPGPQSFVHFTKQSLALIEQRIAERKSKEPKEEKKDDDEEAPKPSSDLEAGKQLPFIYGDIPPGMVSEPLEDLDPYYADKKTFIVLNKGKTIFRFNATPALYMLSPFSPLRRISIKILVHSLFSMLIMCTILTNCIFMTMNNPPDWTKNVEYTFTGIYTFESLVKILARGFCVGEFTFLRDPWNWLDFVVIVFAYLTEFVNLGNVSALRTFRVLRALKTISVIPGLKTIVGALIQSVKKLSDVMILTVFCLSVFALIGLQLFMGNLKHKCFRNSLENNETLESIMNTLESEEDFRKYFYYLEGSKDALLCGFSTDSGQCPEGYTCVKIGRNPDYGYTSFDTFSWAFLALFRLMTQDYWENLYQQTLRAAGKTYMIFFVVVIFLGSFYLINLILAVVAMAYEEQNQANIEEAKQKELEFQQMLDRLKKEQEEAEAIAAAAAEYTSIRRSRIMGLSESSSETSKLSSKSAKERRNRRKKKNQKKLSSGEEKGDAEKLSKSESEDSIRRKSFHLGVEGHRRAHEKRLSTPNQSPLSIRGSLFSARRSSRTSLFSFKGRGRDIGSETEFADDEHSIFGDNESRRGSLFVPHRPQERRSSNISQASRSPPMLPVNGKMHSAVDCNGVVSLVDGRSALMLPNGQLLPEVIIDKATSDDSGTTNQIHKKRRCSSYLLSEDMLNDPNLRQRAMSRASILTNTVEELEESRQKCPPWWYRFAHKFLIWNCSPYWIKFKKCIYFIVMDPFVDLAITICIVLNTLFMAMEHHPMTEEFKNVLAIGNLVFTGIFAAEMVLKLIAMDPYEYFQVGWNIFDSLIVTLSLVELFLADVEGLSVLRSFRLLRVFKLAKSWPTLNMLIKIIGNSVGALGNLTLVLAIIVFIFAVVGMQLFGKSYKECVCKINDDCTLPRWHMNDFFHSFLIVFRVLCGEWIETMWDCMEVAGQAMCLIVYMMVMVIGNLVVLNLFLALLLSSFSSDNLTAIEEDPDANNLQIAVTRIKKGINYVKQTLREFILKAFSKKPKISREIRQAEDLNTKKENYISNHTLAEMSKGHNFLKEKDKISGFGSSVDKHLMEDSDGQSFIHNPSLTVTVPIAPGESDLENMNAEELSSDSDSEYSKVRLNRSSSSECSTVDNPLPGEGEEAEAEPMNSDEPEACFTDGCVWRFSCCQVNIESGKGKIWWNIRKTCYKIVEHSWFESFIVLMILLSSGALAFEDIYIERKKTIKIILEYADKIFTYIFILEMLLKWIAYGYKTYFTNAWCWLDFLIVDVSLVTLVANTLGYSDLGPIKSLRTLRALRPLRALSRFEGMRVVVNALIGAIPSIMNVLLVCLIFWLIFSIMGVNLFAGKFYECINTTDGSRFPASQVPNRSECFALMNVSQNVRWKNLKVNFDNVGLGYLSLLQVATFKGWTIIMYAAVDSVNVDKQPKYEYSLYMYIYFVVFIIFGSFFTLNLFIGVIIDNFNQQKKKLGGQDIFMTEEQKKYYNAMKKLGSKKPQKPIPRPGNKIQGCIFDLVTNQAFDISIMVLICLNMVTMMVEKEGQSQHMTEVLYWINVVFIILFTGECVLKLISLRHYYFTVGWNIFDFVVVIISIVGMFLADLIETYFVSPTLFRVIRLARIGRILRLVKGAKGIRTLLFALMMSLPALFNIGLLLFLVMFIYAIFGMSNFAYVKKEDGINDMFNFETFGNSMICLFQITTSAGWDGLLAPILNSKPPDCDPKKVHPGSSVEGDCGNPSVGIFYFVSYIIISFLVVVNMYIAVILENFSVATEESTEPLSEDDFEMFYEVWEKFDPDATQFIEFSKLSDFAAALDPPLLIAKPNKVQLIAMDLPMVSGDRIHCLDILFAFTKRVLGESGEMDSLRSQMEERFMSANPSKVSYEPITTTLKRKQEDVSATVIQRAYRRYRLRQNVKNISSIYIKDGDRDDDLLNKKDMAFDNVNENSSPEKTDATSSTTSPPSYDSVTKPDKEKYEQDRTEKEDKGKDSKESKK

hNav1.3, sequence (Q9NY46 whole entry): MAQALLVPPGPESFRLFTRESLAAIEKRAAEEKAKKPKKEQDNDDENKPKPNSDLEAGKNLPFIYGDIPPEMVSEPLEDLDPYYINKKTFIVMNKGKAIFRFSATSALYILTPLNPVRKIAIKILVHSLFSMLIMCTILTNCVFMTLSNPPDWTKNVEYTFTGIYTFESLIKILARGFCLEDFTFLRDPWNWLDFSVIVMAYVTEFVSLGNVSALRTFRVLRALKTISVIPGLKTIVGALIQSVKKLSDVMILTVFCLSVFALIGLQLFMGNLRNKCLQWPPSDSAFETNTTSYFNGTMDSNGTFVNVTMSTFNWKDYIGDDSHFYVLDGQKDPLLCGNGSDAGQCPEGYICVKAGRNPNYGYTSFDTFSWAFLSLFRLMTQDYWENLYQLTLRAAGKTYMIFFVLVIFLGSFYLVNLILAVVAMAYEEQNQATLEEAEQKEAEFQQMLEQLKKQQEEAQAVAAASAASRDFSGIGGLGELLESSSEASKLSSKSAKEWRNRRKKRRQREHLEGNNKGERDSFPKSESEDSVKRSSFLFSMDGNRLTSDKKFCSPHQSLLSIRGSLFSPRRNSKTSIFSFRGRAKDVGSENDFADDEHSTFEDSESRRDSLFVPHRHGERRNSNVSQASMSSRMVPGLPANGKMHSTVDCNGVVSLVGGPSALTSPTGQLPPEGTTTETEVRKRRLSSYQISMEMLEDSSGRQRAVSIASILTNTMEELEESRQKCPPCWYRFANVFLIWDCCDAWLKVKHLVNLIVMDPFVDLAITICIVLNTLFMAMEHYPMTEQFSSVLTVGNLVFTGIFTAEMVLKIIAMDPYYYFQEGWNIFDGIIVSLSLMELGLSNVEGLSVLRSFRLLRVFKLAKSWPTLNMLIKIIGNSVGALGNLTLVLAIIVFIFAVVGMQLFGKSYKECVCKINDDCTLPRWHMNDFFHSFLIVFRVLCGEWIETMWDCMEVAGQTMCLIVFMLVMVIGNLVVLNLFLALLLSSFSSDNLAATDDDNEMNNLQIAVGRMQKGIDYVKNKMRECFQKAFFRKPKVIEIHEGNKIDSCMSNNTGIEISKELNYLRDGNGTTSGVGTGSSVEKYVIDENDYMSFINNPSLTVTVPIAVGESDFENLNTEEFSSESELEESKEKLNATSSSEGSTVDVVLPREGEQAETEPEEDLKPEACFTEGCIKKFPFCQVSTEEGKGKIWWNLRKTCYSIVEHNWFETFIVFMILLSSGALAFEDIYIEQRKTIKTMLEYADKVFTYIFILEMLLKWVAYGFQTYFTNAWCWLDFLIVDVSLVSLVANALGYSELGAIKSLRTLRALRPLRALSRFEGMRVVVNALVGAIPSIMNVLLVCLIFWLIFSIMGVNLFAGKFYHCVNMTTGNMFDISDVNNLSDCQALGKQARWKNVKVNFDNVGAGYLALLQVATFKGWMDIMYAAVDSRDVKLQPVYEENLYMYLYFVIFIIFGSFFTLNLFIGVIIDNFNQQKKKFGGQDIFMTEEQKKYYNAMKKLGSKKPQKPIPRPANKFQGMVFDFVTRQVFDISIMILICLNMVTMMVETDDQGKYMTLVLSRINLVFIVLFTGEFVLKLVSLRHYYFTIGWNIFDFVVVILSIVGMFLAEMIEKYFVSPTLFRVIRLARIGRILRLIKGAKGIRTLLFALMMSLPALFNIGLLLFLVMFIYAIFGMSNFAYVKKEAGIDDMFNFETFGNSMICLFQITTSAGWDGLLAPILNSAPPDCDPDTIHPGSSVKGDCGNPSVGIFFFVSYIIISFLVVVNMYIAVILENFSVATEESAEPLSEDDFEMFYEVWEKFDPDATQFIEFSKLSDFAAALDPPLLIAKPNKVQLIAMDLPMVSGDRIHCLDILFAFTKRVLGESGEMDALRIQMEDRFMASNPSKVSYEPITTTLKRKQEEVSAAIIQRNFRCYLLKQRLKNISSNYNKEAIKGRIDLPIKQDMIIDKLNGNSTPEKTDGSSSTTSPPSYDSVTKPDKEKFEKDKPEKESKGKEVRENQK

CCCC[C@@H]1NC(=O)[C@H](Cc2c[nH]c3ccccc23)NC(=O)[C@H](CCCCN)NC(=O)[C@H](CCC(N)=O)NC(=O)[C@@H](NC(=O)[C@@H](N)Cc2ccc(O)cc2)CSSC[C@@H]2NC(=O)[C@@H]3CSSC[C@@H](C(=O)N[C@@H](CCCNC(=N)N)C(=O)N[C@@H](CCCCN)C(=O)N[C@H](C(=O)N[C@H](C(N)=O)[C@@H](C)CC)[C@@H](C)CC)NC(=O)[C@H](Cc4c[nH]c5ccccc45)NC(=O)[C@H](CC(C)C)NC(=O)[C@H](CCCCN)NC(=O)[C@H](CSSC[C@H](NC(=O)[C@H]([C@@H](C)O)NC(=O)[C@H](Cc4c[nH]c5ccccc45)NC1=O)C(=O)N[C@@H](CC(=O)O)C(=O)N[C@@H](CO)C(=O)N[C@@H](CCCCN)C(=O)N[C@@H](CCCNC(=N)N)C(=O)N[C@@H](C)C(=O)N3)NC(=O)[C@H](CCC(=O)O)NC(=O)[C@H](CC(C)C)NC(=O)CNC(=O)[C@H](CCC(=O)O)NC2=O [compound 273]
IC50 (hNav1.3): 4.1 µM
IC50 (hNav1.5): > 5 µM
IC50 (hNav1.4): > 5 µM
IC50 (hNav1.7): 0.19 µM

CC[C@H](C)[C@H](NC(=O)[C@@H](NC(=O)[C@H](CCCCN)NC(=O)[C@H](CCCNC(=N)N)NC(=O)[C@@H]1CSSC[C@@H]2NC(=O)[C@H](C)NC(=O)[C@H](CCCNC(=N)N)NC(=O)[C@H](CCCCN)NC(=O)[C@H](CO)NC(=O)[C@H](CC(=O)O)NC(=O)[C@@H]3CSSC[C@H](NC(=O)[C@H](C(C)C)NC(=O)[C@H](CC(C)C)NC(=O)CNC(=O)[C@H](CCC(=O)O)NC(=O)[C@H](CSSC[C@H](NC(=O)[C@@H](N)Cc4ccc(O)cc4)C(=O)N[C@@H](CCC(N)=O)C(=O)N[C@@H](CCCCN)C(=O)N[C@@H](Cc4c[nH]c5ccccc45)C(=O)N[C@@H](CCSC)C(=O)N[C@@H](Cc4c[nH]c5ccccc45)C(=O)N[C@@H]([C@@H](C)O)C(=O)N3)NC2=O)C(=O)N[C@@H](CCCCN)C(=O)N[C@@H](CC(C)C)C(=O)N[C@@H](Cc2c[nH]c3ccccc23)C(=O)N1)[C@@H](C)CC)C(N)=O [compound 120]
IC50 (hNav1.3): 3.37 µM
IC50 (hNav1.5): 7.1 µM
IC50 (hNav1.4): 3 µM
Nav1.4/Nav1.7 (hNav1.4): 31
IC50 (hNav1.7): 0.1 µM

CC[C@H](C)[C@H](NC(=O)[C@@H](NC(=O)[C@H](CCCCN)NC(=O)[C@H](CCCNC(=N)N)NC(=O)[C@@H]1CSSC[C@@H]2NC(=O)[C@H](C)NC(=O)[C@H](CCCNC(=N)N)NC(=O)[C@H](CCCCN)NC(=O)[C@H](CO)NC(=O)[C@H](CC(=O)O)NC(=O)[C@@H]3CSSC[C@H](NC(=O)[C@H](CCC(=O)O)NC(=O)[C@H](CC(C)C)NC(=O)CNC(=O)[C@H](CCC(=O)O)NC(=O)[C@H](CSSC[C@H](NC(=O)[C@@H](N)Cc4ccc(O)cc4)C(=O)N[C@@H](CCC(N)=O)C(=O)N[C@@H](CCCCN)C(=O)N[C@@H](Cc4c[nH]c5ccccc45)C(=O)N[C@@H](CCSC)C(=O)N[C@@H](Cc4c[nH]c5ccccc45)C(=O)N[C@@H]([C@@H](C)O)C(=O)N3)NC2=O)C(=O)N[C@@H](CCCCN)C(=O)N[C@@H](Cc2cn(CCCOCCOCCOCCOCCOCCOCCOCCOCCOCCOCCN)nn2)C(=O)N[C@@H](Cc2c[nH]c3ccccc23)C(=O)N1)[C@@H](C)CC)C(N)=O [compound 183]
IC50 (hNav1.3): > 5 µM
IC50 (hNav1.5): 19.2 µM
IC50 (hNav1.4): > 5 µM
Nav1.4/Nav1.7 (hNav1.4): 1
IC50 (hNav1.7): ≥ 5 µM

CC[C@H](C)[C@H](NC(=O)[C@H](Cc1ccc(O)cc1)NC(=O)[C@H](CCCCN)NC(=O)[C@H](CCCNC(=N)N)NC(=O)[C@@H]1CSSC[C@@H]2NC(=O)[C@H](C)NC(=O)[C@H](CCCNC(=N)N)NC(=O)[C@H](CCCCN)NC(=O)[C@H](CO)NC(=O)[C@H](CC(=O)O)NC(=O)[C@@H]3CSSC[C@H](NC(=O)[C@H](CCC(=O)O)NC(=O)[C@H](CC(C)C)NC(=O)CNC(=O)[C@H](CCC(=O)O)NC(=O)[C@H](CSSC[C@H](NC(=O)[C@@H](N)Cc4ccc(O)cc4)C(=O)N[C@@H](CCC(N)=O)C(=O)N[C@@H](CCCCN)C(=O)N[C@@H](Cc4c[nH]c5ccccc45)C(=O)N[C@@H](CCSC)C(=O)N[C@@H](Cc4c[nH]c5ccccc45)C(=O)N[C@@H]([C@@H](C)O)C(=O)N3)NC2=O)C(=O)N[C@@H](CCCCN)C(=O)N[C@@H](CC(C)C)C(=O)N[C@@H](CCCCN)C(=O)N1)C(N)=O [compound 228]
IC50 (hNav1.3): > 5 µM
IC50 (hNav1.5): > 5 µM
IC50 (hNav1.4): > 5 µM
IC50 (hNav1.7): 2.7 µM

CC[C@H](C)[C@H](NC(=O)[C@H](Cc1ccc(O)cc1)NC(=O)[C@H](CCCCN)NC(=O)[C@H](CCCNC(=N)N)NC(=O)[C@@H]1CSSC[C@@H]2NC(=O)[C@H](C)NC(=O)[C@H](CCCNC(=N)N)NC(=O)[C@H](CCCCN)NC(=O)[C@H](CO)NC(=O)[C@H](CC(=O)O)NC(=O)[C@@H]3CSSC[C@H](NC(=O)[C@H](CCC(=O)O)NC(=O)[C@H](CC(C)C)NC(=O)CNC(=O)[C@H](CCC(=O)O)NC(=O)[C@H](CSSC[C@H](NC(=O)[C@@H](N)Cc4ccc(O)cc4)C(=O)N[C@@H](CCC(N)=O)C(=O)N[C@@H](CCCCN)C(=O)N[C@@H](C(C)C)C(=O)N[C@@H](CCSC)C(=O)N[C@@H](Cc4c[nH]c5ccccc45)C(=O)N[C@@H]([C@@H](C)O)C(=O)N3)NC2=O)C(=O)N[C@@H](CCCCN)C(=O)N[C@@H](CC(C)C)C(=O)N[C@@H](Cc2c[nH]c3ccccc23)C(=O)N1)C(N)=O [compound 195]
IC50 (hNav1.3): > 5 µM
IC50 (hNav1.5): > 5 µM
IC50 (hNav1.4): > 5 µM
IC50 (hNav1.7): 3.8 µM

CCC[C@@H]1NC(=O)[C@H](Cc2c[nH]c3ccccc23)NC(=O)[C@H](CCCCN)NC(=O)[C@H](CCC(N)=O)NC(=O)[C@@H](NC(=O)[C@@H](N)Cc2ccc(O)cc2)CSSC[C@@H]2NC(=O)[C@@H]3CSSC[C@@H](C(=O)N[C@@H](CCCNC(=N)N)C(=O)N[C@@H](CCCCN)C(=O)N[C@H](C(=O)N[C@H](C(N)=O)[C@@H](C)CC)[C@@H](C)CC)NC(=O)[C@H](Cc4c[nH]c5ccccc45)NC(=O)[C@H](CC(C)C)NC(=O)[C@H](CCCCN)NC(=O)[C@H](CSSC[C@H](NC(=O)[C@H]([C@@H](C)O)NC(=O)[C@H](Cc4c[nH]c5ccccc45)NC1=O)C(=O)N[C@@H](CC(=O)O)C(=O)N[C@@H](CO)C(=O)N[C@@H](CCCCN)C(=O)N[C@@H](CCCNC(=N)N)C(=O)N[C@@H](C)C(=O)N3)NC(=O)[C@H](CCC(=O)O)NC(=O)[C@H](CC(C)C)NC(=O)CNC(=O)[C@H](CCC(=O)O)NC2=O [compound 111]
IC50 (hNav1.3): > 5 µM
IC50 (hNav1.5): 9.2 µM
IC50 (hNav1.4): > 5 µM
Nav1.4/Nav1.7 (hNav1.4): 7
IC50 (hNav1.7): 0.69 µM

CC[C@H](C)[C@H](NC(=O)[C@H](Cc1ccc(O)cc1)NC(=O)[C@H](CCCCN)NC(=O)[C@H](CCCNC(=N)N)NC(=O)[C@@H]1CSSC[C@@H]2NC(=O)[C@H](C)NC(=O)[C@H](CCCNC(=N)N)NC(=O)[C@H](CCCCN)NC(=O)[C@H](CO)NC(=O)[C@H](CC(=O)O)NC(=O)[C@@H]3CSSC[C@H](NC(=O)[C@H](CCC(=O)O)NC(=O)[C@H](CC(C)C)NC(=O)CNC(=O)[C@H](CCC(=O)O)NC(=O)[C@H](CSSC[C@H](NC(=O)[C@@H](N)Cc4ccc(O)cc4)C(=O)N[C@@H](CCC(N)=O)C(=O)N[C@@H](CCCCN)C(=O)N[C@@H](Cc4c[nH]c5ccccc45)C(=O)N[C@@H](CCSC)C(=O)N[C@@H](Cc4c[nH]c5ccccc45)C(=O)N[C@@H]([C@@H](C)O)C(=O)N3)NC2=O)C(=O)N[C@@H](CCCCN)C(=O)N[C@@H](CC(C)C)C(=O)N[C@@H](CC(C)C)C(=O)N1)C(N)=O [compound 224]
IC50 (hNav1.3): > 5 µM
IC50 (hNav1.5): > 5 µM
IC50 (hNav1.4): > 5 µM
IC50 (hNav1.7): > 5 µM

CSCC[C@@H]1NC(=O)[C@H](Cc2c[nH]c3ccccc23)NC(=O)[C@H](CCCCN)NC(=O)[C@H](CCC(N)=O)NC(=O)[C@@H](NC(=O)[C@@H](N)Cc2ccc(O)cc2)CSSC[C@@H]2NC(=O)[C@@H]3CSSC[C@@H](C(=O)N[C@@H](CCCNC(=N)N)C(=O)N[C@@H](CCCCN)C(=O)N[C@@H](Cc4ccc(O)cc4)C(=O)N[C@@H](CCCCN)C(N)=O)NC(=O)[C@H](Cc4c[nH]c5ccccc45)NC(=O)[C@H](CC(C)C)NC(=O)[C@H](CCCCN)NC(=O)[C@H](CSSC[C@H](NC(=O)[C@H]([C@@H](C)O)NC(=O)[C@H](Cc4c[nH]c5ccccc45)NC1=O)C(=O)N[C@@H](CC(=O)O)C(=O)N[C@@H](CO)C(=O)N[C@@H](CCCCN)C(=O)N[C@@H](CCCNC(=N)N)C(=O)N[C@@H](C)C(=O)N3)NC(=O)[C@H](CCC(=O)O)NC(=O)[C@H](CC(C)C)NC(=O)CNC(=O)[C@H](CCC(=O)O)NC2=O [compound 242]
IC50 (hNav1.3): > 5 µM
IC50 (hNav1.5): > 5 µM
IC50 (hNav1.4): > 5 µM
IC50 (hNav1.7): 0.45 µM and 0.63 µM

CC[C@H](C)[C@H](NC(=O)[C@@H](NC(=O)[C@H](CCCCN)NC(=O)[C@H](CCCNC(=N)N)NC(=O)[C@@H]1CSSC[C@@H]2NC(=O)[C@H](C)NC(=O)[C@H](CCCNC(=N)N)NC(=O)[C@H](CCCCN)NC(=O)[C@H](CO)NC(=O)[C@H](CC(=O)O)NC(=O)[C@@H]3CSSC[C@H](NC(=O)[C@H](CCC(=O)O)NC(=O)[C@H](CC(C)C)NC(=O)CNC(=O)[C@H](Cc4cn(CCCOCCOCCOCCOCCOCCOCCOCCOCCOCCOCCN)nn4)NC(=O)[C@H](CSSC[C@H](NC(=O)[C@@H](N)Cc4ccc(O)cc4)C(=O)N[C@@H](CCC(N)=O)C(=O)N[C@@H](CCCCN)C(=O)N[C@@H](Cc4c[nH]c5ccccc45)C(=O)N[C@@H](CCSC)C(=O)N[C@@H](Cc4c[nH]c5ccccc45)C(=O)N[C@@H]([C@@H](C)O)C(=O)N3)NC2=O)C(=O)N[C@@H](CCCCN)C(=O)N[C@@H](CC(C)C)C(=O)N[C@@H](Cc2c[nH]c3ccccc23)C(=O)N1)[C@@H](C)CC)C(N)=O [compound 178]
IC50 (hNav1.3): > 5 µM
IC50 (hNav1.5): 15.1 µM
IC50 (hNav1.4): > 5 µM
Nav1.4/Nav1.7 (hNav1.4): 28
IC50 (hNav1.7): 0.18 µM
